Test results published in patent publication US8604024B2, “Compounds for the reduction of beta-amyloid production” (Bristol-Myers Squibb Company, priority 2011, dated 2013).
Structures can show the parent of a compound that is named as a salt.

Tested on: Aβ1-42 production in H4 cells stably transfected with APP751 containing the Swedish mutation
Experiment: Cellular assay for inhibition of Aβ1-42 production (H4 APP751 SWE clone 8.20)
Type: cell-based
Details: 19 h, H4 APP751 SWE clone 8.20 cells, 19 h incubation; read-out: Aβ42 cellular IC50
Method: Cellular Assays for Inhibition of Aβ1-40 and Aβ1-42 Production
H4 cells stably transfected with APP751 containing the Swedish mutation (H4 APP751 SWE clone 8.20, developed at BMS) were maintained in log phase through twice weekly passage at a 1:20 split. […] Following incubation for 19 h in 5% CO2 at 37° C., plates were briefly centrifuged (1000 rpm, 5 min). A 10 μl aliquot from each well was transferred to a second assay plate (Costar 3709) for Aβ40 measurements. Antibody cocktails were freshly prepared by dilution into 40 mM Tris-HCl (pH 7.4) with 0.2% BSA and added to assay plates. For Aβ42 measurements, antibodies specific for the Aβ42 neoepitope (565, developed at BMS; conjugated to the Wallac reagent (Perkin Elmer)) and the N-terminal sequence of Aβ peptide (26D6, developed at SIBIA; conjugated to APC (Perkin Elmer)) were mixed and 20 μl of the mixture was added to each well of the incubated cell plate yielding a final concentration of 0.8 ng/well 565 and 75 ng/well 26D6. For the Aβ40 measurements, antibodies specific for the Aβ40 neoepitope (TSD, developed at BMS; conjugated to the Wallac reagent (Perkin Elmer)) and 26D6 as described above were mixed and 20 μl of the mixture was added to the 10 μl aliquots which had been removed previously from the cell plate yielding a final concentration of 1.6 ng/well TSD and 17.5 ng/well 26D6. Assay plates containing antibodies were sealed with aluminum foil and incubated overnight at 4° C. Signal was determined using a Viewlux counter (Perkin Elmer) and IC50 values determined using curve fitting in CurveMaster (Excel Fit based).

IC50 | Compound
7.8 µM | C[C@@]12N=C(N)SC[C@@H]1CCOc1ccc(NC(=O)c3ccc(Cl)cn3)cc12 [Example 33b, N-((4aR,11bR)-2-amino-11b-methyl-4a,5,6,11b-tetrahydro-4H-benzo[2,3]oxepino[4,5-d][1,3]thiazin-10-yl)-5-chloropicolinamide]
8.2 µM | CC#Cc1cncc(-c2ccc3c(c2)[C@]2(C)N=C(N)SC[C@@H]2CCO3)c1 [Example 22a, (4aR,11bR)-11b-Methyl-10-(5-(prop-1-yn-1-yl)pyridin-3-yl)-4a,5,6,11b-tetrahydro-4H-benzo[2,3]oxepino[4,5-d][1,3]thiazin-2-amine]
2.5 µM | C[C@@]12N=C(N)SC[C@@H]1CCCc1ccc(NC(=O)c3ccc(F)cn3)cc12 [Example 43a, N-((4aR,11bR)-2-Amino-11b-methyl-4,4a,5,6,7,11b-hexahydrobenzo[6,7]cyclohepta[1,2-d][1,3]thiazin-10-yl)-5-fluoropicolinamide]
0.021 µM | C[C@]12N=C(N)SC[C@H]1CCCc1ccc(NC(=O)c3ccc(C#N)cn3)cc12 [Example 44b, N-((4aS,11bS)-2-Amino-11b-methyl-4,4a,5,6,7,11b-hexahydrobenzo[6,7]cyclohepta[1,2-d][1,3]thiazin-10-yl)-5-cyanopicolinamide]
3.2 µM | Cc1ncc(-c2ccc3c(c2)[C@@]2(C)N=C(N)SC[C@H]2CCO3)s1 [Example 26b, (4aS,11bS)-11b-Methyl-10-(2-methylthiazol-5-yl)-4a,5,6,11b-tetrahydro-4H-benzo[2,3]oxepino[4,5-d][1,3]thiazin-2-amine]
3.5 µM | C[C@@]12N=C(N)SC[C@@H]1CCCc1ccc(NC(=O)c3ccc(OC(F)F)cn3)cc12 [Example 46b, N-((4aR,11bR)-2-Amino-11b-methyl-4,4a,5,6,7,11b-hexahydrobenzo[6,7]cyclohepta[1,2-d][1,3]thiazin-10-yl)-5-(difluoromethoxy)picolinamide]

Further lines, the compound ahead of its results:

Compound | IC50
C[C@@]12N=C(N)SC[C@@H]1CCc1ccc(NC(=O)c3ccc(Cl)cn3)cc12 [Example 7a, N-((4aR,10bR)-2-Amino-10b-methyl-4a,5,6,10b-tetrahydro-4H-naphtho[1,2-d][1,3]thiazin-9-yl)-5-chloropicolinamide] | 3.5 µM
C[C@]12N=C(N)SC[C@H]1CCc1ccc(-c3cncc(Cl)c3)cc12 (relative stereo) [Example 6, rel-(4aS,10bS)-9-(5-Chloropyridin-3-yl)-10b-methyl-4a,5,6,10b-tetrahydro-4H-naphtho[1,2-d][1,3]thiazin-2-amine bis(2,2,2-trifluoroacetate)] | 2.6 µM
CC#Cc1cncc(-c2ccc3c(c2)[C@@]2(C)N=C(N)SC[C@H]2CCO3)c1 (relative stereo) [Example 22, rel-(4aS,11bS)-11b-methyl-10-(5-(prop-1-yn-1-yl)pyridin-3-yl)-4a,5,6,11b-tetrahydro-4H-benzo[2,3]oxepino[4,5-d][1,3]thiazin-2-amine, bis(2,2,2-trifluoroacetate)] | 0.96 µM
COc1ccc(-c2cn(-c3ccc4c(c3)[C@@]3(C)N=C(N)SC[C@H]3CCO4)cn2)cc1 (relative stereo) [Example 31, rel-(4aS,11bS)-10-(4-(4-Methoxyphenyl)-1H-imidazol-1-yl)-11b-methyl-4a,5,6,11b-tetrahydro-4H-benzo[2,3]oxepino[4,5-d][1,3]thiazin-2-amine, bis(2,2,2-trifluoroacetate)] | 9.4 µM
C[C@]12N=C(N)SC[C@H]1CCCc1ccc(-c3cncc(F)c3)cc12 (relative stereo) [Example 14, rel-(4aS,11bS)-10-(5-fluoropyridin-3-yl)-11b-methyl-4,4a,5,6,7,11b-hexahydrobenzo[6,7]cyclohepta[1,2-d][1,3]thiazin-2-amine, bis(2,2,2-trifluoroacetate)] | 2.1 µM
C[C@]12N=C(N)SC[C@H]1CCOc1ccc(-c3cncnc3)cc12 (relative stereo) [Example 27, rel-(4aS,11bS)-11b-methyl-10-(pyrimidin-5-yl)-4a,5,6,11b-tetrahydro-4H-benzo[2,3]oxepino[4,5-d][1,3]thiazin-2-amine, bis(2,2,2-trifluoroacetate)] | 2.9 µM
C[C@]12N=C(N)SC[C@H]1CCOc1ccc(NC(=O)c3ncc(Cl)cc3Cl)cc12 (relative stereo) [Example 34, rel-N-((4aS,11bS)-2-Amino-11b-methyl-4a,5,6,11b-tetrahydro-4H-benzo[2,3]oxepino[4,5-d][1,3]thiazin-10-yl)-3,5-dichloropicolinamide, 2,2,2-trifluoroacetate salt] | 0.026 µM
NC1=N[C@@H]2c3cc(-c4cncnc4)cc(F)c3OCC[C@@H]2CS1 (relative stereo) [Example 4, rel-(4aS,11bS)-8-fluoro-10-pyrimidin-5-yl-4a,5,6,11b-tetrahydro-4H-7-oxa-3-thia-1-aza-dibenzo[a,c]cyclohepten-2-ylamine] | > 30 µM
C[C@]12N=C(N)SC[C@H]1CCc1ccc(-c3cn[nH]c3)cc12 (relative stereo) [Example 19, rel-(4aS,10bS)-10b-Methyl-9-(1H-pyrazol-4-yl)-4a,5,6,10b-tetrahydro-4H-naphtho[1,2-d][1,3]thiazin-2-amine, bis(2,2,2-trifluoroacetate)] | 8 µM
C[C@]12N=C(N)SC[C@H]1CCc1ccc(-c3cncnc3)cc12 (relative stereo) [Example 5, rel-(4aS,10bS)-10b-Methyl-9-(pyrimidin-5-yl)-4a,5,6,10b-tetrahydro-4H-naphtho[1,2-d][1,3]thiazin-2-amine, bis(2,2,2-trifluoroacetate)] | 4.6 µM
C[C@]12N=C(N)SC[C@H]1CCOc1ccc(Nc3ncccc3C#N)cc12 (relative stereo) [Example 39, rel-2-(((4aS,11bS)-2-Amino-11b-methyl-4a,5,6,11b-tetrahydro-4H-benzo[2,3]oxepino[4,5-d][1,3]thiazin-10-yl)amino)nicotinonitrile, bis(2,2,2-trifluoroacetate)] | > 30 µM
C[C@]12N=C(N)SC[C@H]1CCc1ccc(NC(=O)c3ccc(Cl)cn3)cc12 (relative stereo) [Example 7, rel-N-((4aS,10bS)-2-Amino-10b-methyl-4a,5,6,10b-tetrahydro-4H-naphtho[1,2-d][1,3]thiazin-9-yl)-5-chloropicolinamide, 2,2,2-trifluoroacetate] | 1.1 µM
CC#Cc1cncc(-c2ccc3c(c2)[C@@]2(C)N=C(N)SC[C@H]2CCC3)c1 (relative stereo) [Example 15, rel-(4aS,11bS)-11b-Methyl-10-(5-(prop-1-yn-1-yl)pyridin-3-yl)-4,4a,5,6,7,11b-hexahydrobenzo[6,7]cyclohepta[1,2-d][1,3]thiazin-2-amine, bis(2,2,2-trifluoroacetate)] | 3.6 µM
C[C@]12N=C(N)SC[C@H]1CCCc1ccc(Br)cc12 (relative stereo) [Example 16] | 2.5 µM
C[C@]12N=C(N)SC[C@H]1CCOc1ccc(Nc3ncccc3Cl)cc12 (relative stereo) [Example 37, rel-(4aS,11bS)—N10-(3-Chloropyridin-2-yl)-11b-methyl-4a,5,6,11b-tetrahydro-4H-benzo[2,3]oxepino[4,5-d][1,3]thiazine-2,10-diamine, bis(2,2,2-trifluoroacetate)] | 1.4 µM
C[C@]12N=C(N)SC[C@H]1CCc1ccc(Br)cc12 (relative stereo) [Example 10, rel-(4aS,10bS)-9-Bromo-10b-methyl-4a,5,6,10b-tetrahydro-4H-naphtho[1,2-d][1,3]thiazin-2-amine] | 13 µM
C[C@]12N=C(N)SC[C@H]1CCOc1ccc(-c3c[nH]c4ccccc34)cc12 (relative stereo) [Example 30, rel-(4aS,11bS)-10-(1H-indol-3-yl)-11b-methyl-4a,5,6,11b-tetrahydro-4H-benzo[2,3]oxepino[4,5-d][1,3]thiazin-2-amine, 2,2,2-trifluoroacetate salt] | 16 µM
C[C@]12N=C(N)SC[C@H]1COc1cc(F)c(NC(=O)c3ccc(Cl)cn3)cc12 (relative stereo) [Example 18, rel-N-((4aR,10bS)-2-Amino-8-fluoro-10b-methyl-4,4a,5,10b-tetrahydrochromeno[4,3-d][1,3]thiazin-9-yl)-5-chloropicolinamide, 2,2,2-trifluoroacetate] | 6.1 µM
C[C@]12N=C(N)SC[C@H]1CCOc1ccc(Nc3ncnc4ccccc34)cc12 (relative stereo) [Example 40, rel-(4aS,11bS)-11b-Methyl-N10-(quinazolin-4-yl)-4a,5,6,11b-tetrahydro-4H-benzo[2,3]oxepino[4,5-d][1,3]thiazine-2,10-diamine, bis(2,2,2-trifluoroacetate)] | 15 µM

Same assay, conditions: H4 APP751 SWE clone 8.20 cells, 19 h incubation; read-out: Aβ42 cellular IC50

IC50 | Compound
5.1 µM | C[C@@]12N=C(N)SC[C@@H]1CCOc1ccc(NC(=O)c3ccc(C#N)cn3)cc12 (stereo in doubt) [Example 35a, N-((4aR,11bR)-2-amino-11b-methyl-4a,5,6,11b-tetrahydro-4H-benzo[2,3]oxepino[4,5-d][1,3]thiazin-10-yl)-5-cyanopicolinamide]
